For experiment [1], the target named is T1, PEPT1 (Homo sapiens, UniProt P46059).
T1 sequence (P46059 1-708): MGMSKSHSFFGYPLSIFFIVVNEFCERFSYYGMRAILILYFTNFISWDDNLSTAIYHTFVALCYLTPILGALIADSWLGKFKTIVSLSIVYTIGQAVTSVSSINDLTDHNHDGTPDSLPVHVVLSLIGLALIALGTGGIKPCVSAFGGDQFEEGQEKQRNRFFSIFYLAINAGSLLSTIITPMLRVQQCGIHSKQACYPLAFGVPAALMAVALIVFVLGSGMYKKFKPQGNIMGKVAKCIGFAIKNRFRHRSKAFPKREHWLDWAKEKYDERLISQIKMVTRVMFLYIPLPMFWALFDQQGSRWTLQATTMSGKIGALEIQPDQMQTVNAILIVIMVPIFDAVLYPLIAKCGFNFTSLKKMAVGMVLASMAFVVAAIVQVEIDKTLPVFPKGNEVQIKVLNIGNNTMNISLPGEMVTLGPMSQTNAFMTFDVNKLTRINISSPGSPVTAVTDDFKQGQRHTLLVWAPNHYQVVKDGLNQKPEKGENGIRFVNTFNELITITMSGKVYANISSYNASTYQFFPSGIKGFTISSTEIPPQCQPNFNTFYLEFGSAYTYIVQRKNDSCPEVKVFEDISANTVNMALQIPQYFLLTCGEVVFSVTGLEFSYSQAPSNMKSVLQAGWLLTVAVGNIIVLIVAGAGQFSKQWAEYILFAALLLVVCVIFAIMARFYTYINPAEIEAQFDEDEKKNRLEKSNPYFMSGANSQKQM
Also noted: expressed in transfected cells; host or cells: HeLa cells (ATCC), transiently transfected with Fugene 6, pcDNA3.1 vector; method as in Zhang et al. (2004). As to conditions: Gly-Sar 50 μM; ref Zhang et al. (2004); read-out: IC50 against Gly-Sar; cited from earlier work.

For experiment [2], the target named is T1, PEPT1. The experiment is described as follows: Inhibition of PEPT1-mediated [14C]LY2140023 uptake in transfected HeLa cells. As to conditions: for IC50: 10 μM [14C]LY2140023.
Procedure: Briefly, cells were seeded at a density of 65,000 cells/ml in 24-well plates. After achieving 50 to 80% confluency, cells were transfected with SLC15A1, gene for PEPT1 (accession number NM_005073) inserted in pcDNA3.1 or pcDNA3.1 empty vector (Invitrogen) using Fugene 6 (Roche, Indianapolis, IN) following the manufacturer’s protocol.
The solubility of compounds at these concentrations was checked by using a fiber-optic light source.
where [I] is an inhibitor concentration in micromoles. Top is the highest % activity in the absence of inhibitor, and S is the slope factor.
[3] abbreviates: IC50 against LY2140023, first of two separate experiments.
Setting [4] is: IC50 against LY2140023, second of two separate experiments.
[5] abbreviates: Mean IC50 against LY2140023, mean of two separate experiments.

Our source for the IC50 and inhibition values is publication PMC5267515, “In Vitro and Clinical Evaluations of the Drug-Drug Interaction Potential of a Metabotropic Glutamate 2/3 Receptor Agonist Prodrug with Intestinal Peptide Transporter 1” (Drug Metabolism and Disposition, 2017).

Where two headings read alike, the source gives them in different places.

As usually defined, the IC50 is the concentration at which inhibition is half-maximal. With `NCC(=O)CCC(=O)O` [ALA, 5-aminolevulinic acid], the 50% inhibitory concentration (IC50) was 0.78 ± 0.26 mM on PEPT1 [1], 1.77 ± 0.21 mM against PEPT1 [2] (setting [3]), 1.56 ± 0.22 mM on PEPT1 [2] (setting [4]) and 1.67 mM at PEPT1 [2] (setting [5]).

Take `CC1=C(C(=O)O)N2C(=O)[C@@H](NC(=O)[C@H](N)c3ccc(O)cc3)[C@H]2SC1` [Cefadroxil]: the IC50 was 1.88 ± 0.35 mM at PEPT1 [1], 4.05 ± 0.44 mM at PEPT1 [2] (setting [3]), 5.93 ± 1.47 mM against PEPT1 [2] (setting [4]) and 4.99 mM against PEPT1 [2] (setting [5]).

In the case of `CCOC(=O)[C@H](CCc1ccccc1)N[C@@H](C)C(=O)N1CCC[C@H]1C(=O)O` [Enalapril], the half-maximal inhibitory concentration (IC50) at PEPT1 [1] was 2.13 ± 0.36 mM; at PEPT1 [2] (setting [3]), 11 ± 2.64 mM; on PEPT1 [2] (setting [4]), 10.3 ± 0.42 mM; against PEPT1 [2] (setting [5]), 10.7 mM.

The term inhibition denotes the change of the read-out against control, counted positive when it falls. For `N[C@@H](Cc1ccc(O)c(O)c1)C(=O)O` [L- DOPA, L-DOPA], the half-inhibitory concentration (IC50) at PEPT1 [1] was 14.9 ± 2.45 mM; against PEPT1 [2] (setting [3]), 25.3 ± 2.57 mM; against PEPT1 [2] (setting [4]), 26.5 ± 9.38 mM; against PEPT1 [2] (setting [5]), 25.9 mM. At PEPT1 [2] (HeLa, read-out: inhibition of [14C]LY2140023 uptake), the inhibition at 25000 µM is under 50%.
